We go through 6 molecules from patent US7868181B2, “Compounds” (AstraZeneca AB, priority 2007, dated 2011).

One assay addresses T1, aldose reductase (Rattus norvegicus, UniProt P07943).
T1 construct: MDS Pharma Services - Taiwan Ltd (contract laboratory that ran the assay)
Briefly: comparative aldose reductase activity determination (MDS Pharma Services). Format: biochemical. The note with it: carried out by MDS Pharma Services. How it is done: A comparative aldose reductase activity determination was carried out by the company MDS Pharma Services—Taiwan Ltd; the results of that study is set forth in Table 1 below.

For another assay, the target named is T2, human VR1 (Homo sapiens, UniProt Q8NER1).
T2 construct: expressed in transfected cells; host or cells: CHO cells
Briefly: hVR1 FLIPR screening assay, IC50 determination (capsaicin). Format: cell-based. The note with it: CHO cells stably expressing hVR1; agonist capsaicin. How it is done: hVR1FLIPR (Fluorometric Image Plate Reader) Screening Assay
Transfected CHO cells, stably expressing hVR1 (15,000 cells/well) are seeded in 50 μL media in a black clear bottom 384 plate (Greiner) and grown in a humidified incubator (37° C., 2% CO2), 24-30 hours prior to experiment.
Subsequently, the media is removed from the cell plate by inversion and 2 μM Fluo-4 is added using a multidrop (Labsystems). Following the 40 min dye incubation in the dark at 37° C. and 2% CO2, the extracellular dye present is washed away using an EMBLA (Scatron), leaving the cells in 40 μL of assay buffer (1×HBSS, 10 mM D-Glucose, 1 mM CaCl2, 10 mM HEPES, 10×7.5% NaHCO3 and 2.5 mM Probenecid).
FLIPR Assay—IC50 Determination Protocol
For IC50 determinations the fluorescence is read using FLIPR filter 1 (em […]). A cellular baseline recording is taken for 30 seconds, followed by a 20 μL addition of 10, titrated half-log concentrations of the test compound, yielding cellular concentration ranging from 3 μM to 0.1 nM. Data is collected every 2 seconds for a further 5 min prior to the addition of a VR1 agonist solution: either 50 nM solution of capsaicin or MES (2-[N-morpholino] ethanesulfonic acid) buffer (pH 5.2), by the FLIPR pipettor. The FLIPR continues to collect data for a further 4 min. Compounds having antagonistic properties against the hVR1 will inhibit the increase in intracellular calcium in response to the capsaicin addition. This consequently leading to a reduction in fluorescence signal and providing a reduced fluorescence reading, compared with no compound, buffer controls. Data is exported by the FLIPR program as a sum of fluorescence calculated under the curve upon the addition of capsaicin. Maximum inhibition, Hill slope and IC50 data for each compound are generated.

For assay [1], the system named is carrageenan-induced heat hyperalgesia. Briefly: Carrageenan model, heat plantar test (paw withdrawal latency). Format: in vivo. The note with it: rat, oral.
Assay [2] has as its system FCA-induced heat hyperalgesia. In words: Freund's Complete Adjuvant (FCA) model, heat plantar test (paw withdrawal latency). Format: in vivo. The note with it: rat, oral.
[3] abbreviates: tested at Tmax, reversal of heat hyperalgesia.

Each structure is given as a SMILES string.

T2 sequence (Q8NER1 whole entry): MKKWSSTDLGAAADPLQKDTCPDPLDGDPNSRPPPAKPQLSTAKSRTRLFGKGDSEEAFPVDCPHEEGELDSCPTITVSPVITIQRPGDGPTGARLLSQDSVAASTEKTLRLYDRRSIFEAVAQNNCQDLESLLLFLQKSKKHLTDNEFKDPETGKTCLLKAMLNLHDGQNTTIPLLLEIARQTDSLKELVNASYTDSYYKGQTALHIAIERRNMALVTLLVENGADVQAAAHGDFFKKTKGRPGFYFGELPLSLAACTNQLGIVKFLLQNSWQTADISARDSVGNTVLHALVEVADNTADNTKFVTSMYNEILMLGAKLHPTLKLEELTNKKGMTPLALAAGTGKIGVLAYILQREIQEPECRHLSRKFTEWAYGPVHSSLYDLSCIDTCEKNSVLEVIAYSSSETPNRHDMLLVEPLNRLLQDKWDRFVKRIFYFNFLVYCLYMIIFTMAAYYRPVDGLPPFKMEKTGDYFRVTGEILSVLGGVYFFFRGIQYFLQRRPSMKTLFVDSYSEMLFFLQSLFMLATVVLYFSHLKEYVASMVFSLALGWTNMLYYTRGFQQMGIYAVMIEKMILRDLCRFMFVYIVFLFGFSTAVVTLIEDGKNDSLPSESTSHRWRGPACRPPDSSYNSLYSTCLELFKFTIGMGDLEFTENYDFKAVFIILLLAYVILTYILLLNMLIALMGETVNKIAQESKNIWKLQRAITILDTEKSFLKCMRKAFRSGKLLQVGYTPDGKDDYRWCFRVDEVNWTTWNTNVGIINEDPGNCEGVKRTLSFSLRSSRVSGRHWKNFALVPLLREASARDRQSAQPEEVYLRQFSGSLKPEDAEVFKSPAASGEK

Turning to `O=C1NC(=O)[C@]2(N1)C(=O)N(C/C=C/c1ccc(Cl)c(Cl)c1)c1ccccc12` (single isomer, unassigned) [Enantiomer 1A], the IC50 (commonly the concentration needed to halve the response being measured) was determined as 25 nM at aldose reductase and 10000 nM at human VR1.
Turning to `O=C1NC(=O)[C@@]2(N1)C(=O)N(C/C=C/c1ccc(Cl)c(Cl)c1)c1ccccc12` (single isomer, unassigned) [Enantiomer 1B], the “Extrapolated Emax” value in assay [1] (non-linear regression) is listed as 88%; in assay [2] (non-linear regression) it was above 100%. The EC80 (commonly the concentration at which the effect reaches the 80% level) came out at 10.7 µM in assay [1] (reversal of heat hyperalgesia) and 100 µM in assay [2] (reversal of heat hyperalgesia). In addition, the Emax observed in assay [1] (reversal of heat hyperalgesia) is listed as 76%; in assay [2] (reversal of heat hyperalgesia), 100%. Further, the EC50 – broadly, the concentration giving half of the maximal effect – in assay [1] (setting [3]) was 4.8 µM; in assay [2] (setting [3]), 24 µM. Also, the ED50 (usually the dose that gives a 50% effect, or the effect in half of the subjects) is 10.6 µmol/kg in assay [1] (setting [3]) and 52.8 µmol/kg in assay [2] (setting [3]). In addition, the IC50 at aldose reductase came to 758 nM; at human VR1 it was 43 nM.
As for `O=C1NC(=O)[C@]2(N1)C(=O)N(C/C=C/c1ccc(Cl)c(C(F)(F)F)c1)c1ccccc12` (single isomer, unassigned) [Enantiomer 2A], the IC50 was 33 nM against aldose reductase and 3850 nM at human VR1.
The matching figures for `O=C1NC(=O)[C@@]2(N1)C(=O)N(C/C=C/c1ccc(Cl)c(C(F)(F)F)c1)c1ccccc12` (single isomer, unassigned) [Enantiomer 2B]: 3300 nM and 241 nM.
For the molecule `O=C1NC(=O)[C@]2(N1)C(=O)N(CC#Cc1ccc(Cl)c(Cl)c1)c1ccccc12` (single isomer, unassigned) [Enantiomer 3A], the IC50 at aldose reductase turned out to be 72.3 nM; at human VR1, 15500 nM.
The matching figures for `O=C1NC(=O)[C@@]2(N1)C(=O)N(CC#Cc1ccc(Cl)c(Cl)c1)c1ccccc12` (single isomer, unassigned) [Enantiomer 3B]: 983 nM and 881 nM.
